Experimental data taken from patent US20240091390A1, “IMPROVED CHOLECYSTOKININ-2 RECEPTOR (CCK2R) TARGETING FOR DIAGNOSIS AND THERAPY” (Medizinische Universität Innsbruck, priority 2021, published 2024).
Each block holds one molecule with its values, some of them ahead of it. Starred links: 1 amine or outer side, 2 acyl side, 3 side chain; linkers in the order of their positions; H or OH if unused. Non-standard residues stand in square brackets, D forms with d. Residues, ends and D or L forms follow the SMILES beside them. *: point of attachment. DOTA = O=C(O)CN1CCN(CC(=O)O)CCN(CC(=O)*)CCN(CC(=O)O)CC1; d(γGlu) = O=C(O)[C@@H](CCC(=O)[*:2])N[*:1]; 1Nal = N[C@@H](Cc1cccc2ccccc12)C(=O)O; NMeNle = CCCC[C@H](NC)C(=O)O; GABA = NCCCC(=O)O; βAla = NCCC(=O)O

Legend:
[1] = in vivo; details: female, athymic BALB/c nude, mouse, iv, total radioactivity
Description: (§1) For the induction of tumour xenografts, A431-CCK2R and A431-mock cells were injected subcutaneously in athymic BALB/c nude mice (Charles River or Janvier Labs), respectively (2 million cells in 200 μL). When tumours had reached a size of approximately 0.2 ml, biodistribution studies were carried out. Groups of 3-5 mice were injected intravenously via a lateral tail vein with the peptidomimetics, labelled with ^177Lu (0.5-1 MBq and 0.02-0.03 nmol peptidomimetic) or ^68Ga (˜0.5 MBq and 0.02-0.03 nmol peptidomimetic). […] After selected time points post-injection (p.i.) the animals were sacrificed by cervical dislocation, tumours and other tissues (blood, lung, heart, muscle, bone, spleen, intestine, liver, kidneys, stomach, pancreas) were removed, weighed, and their radioactivity measured in a gamma counter.
In further biodistribution studies the tumour uptake and imaging properties of different ^68Ga-labelled pepitdiomimetics was evaluated. For this purpose female athymic BALB/c nude mice (Janvier Labs, Le Genest Saint Isle, France) were inoculated with A431-CCK2R cells (left flank) at an age of 8-10 weeks.

[2] = test system: A431-CCK2R tumour xenografts; details: mouse, in vivo
Description: (§2) For the induction of tumour xenografts, A431-CCK2R and A431-mock cells were injected subcutaneously in athymic BALB/c nude mice (Charles River or Janvier Labs), respectively (2 million cells in 200 μL). When tumours had reached a size of approximately 0.2 ml, biodistribution studies were carried out. Groups of 3-5 mice were injected intravenously via a lateral tail vein with the peptidomimetics, labelled with ^177Lu (0.5-1 MBq and 0.02-0.03 nmol peptidomimetic) or ^68Ga (˜0.5 MBq and 0.02-0.03 nmol peptidomimetic). To check for receptor specificity blocking studies using co-injection of a 1000-fold molar excess of the unlabelled peptide (˜20 nmol) together with the administration of the ^177Lu-labelled peptide were performed (FIG. 3). After selected time points post-injection (p.i.) the animals were sacrificed by cervical dislocation, tumours and other tissues (blood, lung, heart, muscle, bone, spleen, intestine, liver, kidneys, stomach, pancreas) were removed, weighed, and their radioactivity measured in a gamma counter.
(§3) The biodistribution profile of ^177Lu-DOTA-MGSA and ^177Lu-DOTA-MGS5 over up to 7 days was studied in female athymic BALB/c nude mice, inoculated with A431-CCK2R cells (left flank) at an age of 6-8 weeks (5 animals per peptidomimetic and for each time point of 1 h, 24 h, 3 d and 7 d). When tumours had reached a size of approximately 0.1-0.2 ml, biodistribution studies were carried out.

[3] = in vivo; details: female, athymic BALB/c nude, mouse, iv, total radioactivity; remark: listed apart in the source
Description: (§4) Biodistribution studies evaluating the tumour uptake of the radiolabelled inventive CCK2R targeting peptide analogues were performed in xenografted nude mice.
as §1
(§5) Results were expressed as percentage of injected activity per gram tissue (% IA/g) and tumour to organ activity ratios were calculated from the activity measured in the dissected tissues (FIGS. 2 and 3).

[4] = in vivo; details: female, athymic BALB/c nude, mouse, iv, total radioactivity; remark: listed apart in the source
Description: as §2, §3

[5] = biological target: T1, CCK2R (Homo sapiens, UniProt P32239); assay: Competition binding assay against [^125I][3-iodo-Tyr^12,Leu^15]gastrin-I on A431-CCK2R cells; details: displacement of [^125I][3-iodo-Tyr^12,Leu^15]gastrin-I, 1 h at RT
T1 construct: expressed in transfected cells; host or cells: A431 cells (A431-CCK2R), provided by Dr. Luigi Aloj
T1 sequence (P32239 1-447): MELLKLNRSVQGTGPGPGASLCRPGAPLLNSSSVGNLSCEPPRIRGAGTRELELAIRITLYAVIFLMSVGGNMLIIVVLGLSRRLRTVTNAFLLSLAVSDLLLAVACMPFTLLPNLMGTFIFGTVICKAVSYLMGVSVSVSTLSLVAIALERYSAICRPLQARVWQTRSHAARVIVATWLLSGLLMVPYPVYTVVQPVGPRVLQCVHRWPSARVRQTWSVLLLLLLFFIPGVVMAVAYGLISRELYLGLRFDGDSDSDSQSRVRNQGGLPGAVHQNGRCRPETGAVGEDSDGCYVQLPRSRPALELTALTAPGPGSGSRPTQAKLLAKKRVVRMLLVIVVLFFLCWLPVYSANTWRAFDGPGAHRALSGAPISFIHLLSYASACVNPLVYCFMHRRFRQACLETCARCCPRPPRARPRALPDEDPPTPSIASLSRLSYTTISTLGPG
Description: Affinity for CCK2R was studied in A431-CCK2R cells. […] Radioiodination of gastrin-I was carried out using the chloramine-T method. Non-carrier-added [^125I][3-iodo-Tyr^12,Leu^15]gastrin-I was obtained by HPLC purification and stored in aliquots at −20° C. Binding assays were carried out in 96-well filter plates (MultiScreenHTS-FB, Merck Group, Darmstadt, Germany) pretreated with 10 mM TRIS/139 mM NaCl pH 7.4 (2×250 μL). For the assay a number of 400,000 A431-CCK2R cells per well was prepared in 35 mM HEPES buffer pH 7.4 containing 10 mM MgCl2, 14 μM bacitracin and 0.5% BSA (a hypotonic solution disturbing the integrity of the cell membranes). The cells were incubated in triplicates with increasing concentrations of the peptidomimetics (0.0003 to 1,000 nM) and [^125I-Tyr^12]gastrin-I (˜25,000 cpm) for 1 h at RT. Incubation was interrupted by filtration of the medium and rapid rinsing with ice-cold 10 mM TRIS/139 mM NaCl pH 7.4 (2×200 μl) and the filters were counted in the gamma-counter. Half maximal inhibitory concentration (IC50) values were calculated following nonlinear regression with Origin software (Microcal Origin 6.1, Northampton, MA) and a representative assay was chosen for comparison.

[6] = test system: A431-CCK2R tumour xenografts; details: ^68Ga-labelled, previously reported (Klingler M et al., J Nucl Med 2019); cited from earlier work
[7] = Stability against enzymatic degradation in vivo (radio-HPLC of blood); set-up: species or system BALB/c mice; details: ^177Lu-labelled; for percentage of intact radioligand present in the blood: 30 min p.i.
Description: To further characterise the stability of the radiolabelled peptidomimetic in vivo, metabolic studies were carried out in 5-6-week-old female BALB/c mice (Charles River, Sulzfeld, Germany) injected intravenously with ^177Lu-labelled and ^68Ga-labelled peptidomimetics. All animal experiments were conducted in compliance with the Austrian animal protection laws and with the approval of the Austrian Ministry of Science. To allow monitoring of the metabolites by radio-HPLC, mice were injected with a higher amount of radioactivity (20-40 MBq ^177Lu, corresponding to ˜1 nmol total peptide, or ˜10 MBq ^68Ga, corresponding to ˜1 nmol total peptide) through a lateral tail vein and euthanized by cervical dislocation at selected time points p.i. […] A sample of blood was collected and the degradation was assessed by radio-HPLC. For this purpose blood samples were precipitated with ACN, centrifuged at 2000 g for 2 min and diluted with water (1:1/v:v) prior to HPLC analysis using a Dionex chromatography system including radiodetection and UV detection equipped with a Phenomenex Jupiter Proteo C12 column (90 Å, 4 μm, 250×4.6 mm) column using a water/acetonitrile/0.1% TFA gradient system.

[8] = test system: A431-CCK2R tumour xenografts; assay: Biodistribution of ^177Lu-labelled peptidomimetics up to 7 days p.i.; details: difference not significant
Description: as §2, §3

[9] = Biodistribution of ^177Lu-labelled peptidomimetics at 4 h p.i. in xenografted nude mice; details: female, athymic BALB/c nude, mouse, iv, total radioactivity
Description: as §4, §1, §5

[10] = test system: A431-CCK2R and A431-mock tumour xenografts; details: ^177Lu-labelled, 4 h p.i., Klingler M et al., J Med Chem 2020; cited from earlier work
[11] = 10 min after intravenous injection; cited from earlier work
[12] = cited from earlier work
[13] = tumour uptake in A431-CCK2R xenografts

- tissue to tissue ratio at 1 h [1]: 11.2 ± 0.8
- tissue uptake at 1 h ([1]; kidney uptake): 2.4 ± 0.2 %ID/g
- tissue uptake at 1 h [1, 13]: 27 ± 0.2 %ID/g
Molecule: CCCC[C@@H](C(=O)N[C@@H](CC(=O)O)C(=O)N[C@@H](Cc1cccc2ccccc12)C(N)=O)N(C)C(=O)[C@H](Cc1c[nH]c2ccccc12)NC(=O)CCNC(=O)CC(O)CNC(=O)CC(O)CNC(=O)CN1CCN(CC(=O)O)CCN(CC(=O)O)CCN(CC(=O)O)CC1 (single isomer, unassigned) [^68Ga-DOTA-MGSA, ^68Ga-DOTA-GABOB-GABOB-βAla-Trp-(NMe)Nle-Asp-1Nal-NH2, metal not drawn]

- accumulation of radioactivity in kidneys compared to ^177Lu-DOTA-MGS5 [2]: significantly lower
- tissue to tissue ratio at 4 h [3]: 16.7 ± 2.7
- tissue uptake at 4 h ([3]; kidney uptake): 2 ± 0.3 %ID/g
- tissue uptake at 4 h [3, 13]: 32.1 ± 4.1 %ID/g
- tissue uptake at 1 h [4]: 56.3 ± 9.1 %ID/g
- tissue uptake at 168 h [4]: 1.2 ± 0.5 %ID/g
Molecule: CCCC[C@@H](C(=O)N[C@@H](CC(=O)O)C(=O)N[C@@H](Cc1cccc2ccccc12)C(N)=O)N(C)C(=O)[C@H](Cc1c[nH]c2ccccc12)NC(=O)CCNC(=O)CC(O)CNC(=O)CC(O)CNC(=O)CN1CCN(CC(=O)O)CCN(CC(=O)O)CCN(CC(=O)O)CC1 (single isomer, unassigned) [^177Lu-DOTA-MGSA, ^177Lu-DOTA-GABOB-GABOB-βAla-Trp-(NMe)Nle-Asp-1Nal-NH2, metal not drawn]

- IC50 [5]: 0.21 ± 0.01 nM
Molecule: CCCC[C@@H](C(=O)N[C@@H](CC(=O)O)C(=O)N[C@@H](Cc1cccc2ccccc12)C(N)=O)N(C)C(=O)[C@H](Cc1c[nH]c2ccccc12)NC(=O)CCNC(=O)CC(O)CNC(=O)CC(O)CNC(=O)CN1CCN(CC(=O)O)CCN(CC(=O)O)CCN(CC(=O)O)CC1 (stereo partly drawn) [DOTA-MGSA, DOTA-Gabob-Gabob-βAla-Trp-(NMe)Nle-Asp-1Nal-NH2]

- IC50 [5]: 0.31 ± 0.02 nM
Molecule: CCCC[C@@H](C(=O)N[C@@H](CC(=O)O)C(=O)N[C@@H](Cc1cccc2ccccc12)C(N)=O)N(C)C(=O)[C@H](Cc1c[nH]c2ccccc12)NC(=O)CCNC(=O)CCCNC(=O)CCCNC(=O)CN1CCN(CC(=O)O)CCN(CC(=O)O)CCN(CC(=O)O)CC1 [DOTA-MGSB, DOTA-Gaba-Gaba-βAla-Trp-(NMe)Nle-Asp-1Nal-NH2] ({DOTA-GABA-GABA-βAla}-W[NMeNle]D[1Nal]-NH2)

- IC50 [5]: 0.16 ± 0.01 nM
Molecule: CCCC[C@@H](C(=O)N[C@@H](CC(=O)O)C(=O)N[C@@H](Cc1cccc2ccccc12)C(N)=O)N(C)C(=O)[C@H](Cc1c[nH]c2ccccc12)NC(=O)CCNC(=O)CC[C@@H](NC(=O)CC[C@@H](NC(=O)CN1CCN(CC(=O)O)CCN(CC(=O)O)CCN(CC(=O)O)CC1)C(=O)O)C(=O)O [DOTA-MGSC, DOTA-γDGlu-γDGlu-βAla-Trp-(NMe)Nle-Asp-1Nal-NH2] ({DOTA-d(γGlu)-d(γGlu)-βAla}-W[NMeNle]D[1Nal]-NH2)

Molecule: CCCC[C@@H](C(=O)N[C@@H](CC(=O)O)C(=O)N[C@@H](Cc1cccc2ccccc12)C(N)=O)N(C)C(=O)[C@H](Cc1c[nH]c2ccccc12)NC(=O)CNC(=O)[C@H](Cc1ccc(O)cc1)NC(=O)[C@H](C)NC(=O)[C@@H](CCC(=O)O)NC(=O)CN1CCN(CC(=O)O)CCN(CC(=O)O)CCN(CC(=O)O)CC1 [^68Ga-DOTA-MGS5, metal not drawn]
- kidney uptake [6]: 5.71±1.38 % IA/g
- tumour uptake [6]: 23.3±4.7 % IA/g
- tissue to tissue ratio at 1 h [1]: 4.1 ± 0.3

- tissue to tissue ratio at 1 h [1]: 14.5 ± 0.6
- tissue uptake at 1 h ([1]; kidney uptake): 2.5 ± 0.1 %ID/g
- tissue uptake at 1 h [1, 13]: 36 ± 1.4 %ID/g
Molecule: CCCC[C@@H](C(=O)N[C@@H](CC(=O)O)C(=O)N[C@@H](Cc1cccc2ccccc12)C(N)=O)N(C)C(=O)[C@H](Cc1c[nH]c2ccccc12)NC(=O)CCNC(=O)CC[C@@H](NC(=O)CC[C@@H](NC(=O)CN1CCN(CC(=O)O)CCN(CC(=O)O)CCN(CC(=O)O)CC1)C(=O)O)C(=O)O [^68Ga-DOTA-MGSC, ^68Ga-DOTA-γDGlu-γDGlu-βAla-Trp-(NMe)Nle-Asp-1Nal-NH2, metal not drawn] ({DOTA-d(γGlu)-d(γGlu)-βAla}-W[NMeNle]D[1Nal]-NH2)

Molecule: CCCC[C@@H](C(=O)N[C@@H](CC(=O)O)C(=O)N[C@@H](Cc1cccc2ccccc12)C(N)=O)N(C)C(=O)[C@H](Cc1c[nH]c2ccccc12)NC(=O)CNC(=O)[C@H](Cc1ccc(O)cc1)NC(=O)[C@H](C)NC(=O)[C@@H](CCC(=O)O)NC(=O)CN1CCN(CC(=O)O)CCN(CC(=O)O)CCN(CC(=O)O)CC1 [^177Lu-DOTA-MGS5, metal not drawn]
- percentage intact in the blood ([7]; 10 min p.i.): 85.9%
- percentage of intact radioligand present in the blood [7]: 77.0%
- uptake levels in the blood, comparison of the two peptidomimetics [8]: somewhat lower uptake levels
- tissue uptake at 4 h ([9]; kidney, kidney uptake, ^177Lu-labelled, 4 h p.i.): 3.5 ± 0.9 %ID/g
- tissue to tissue ratio at 4 h ([9]; tumour and kidney): 7 ± 2.2

- percentage of intact radioligand present in the blood [7]: 56.8%
Molecule: CCCC[C@@H](C(=O)N[C@@H](CC(=O)O)C(=O)N[C@@H](Cc1cccc2ccccc12)C(N)=O)N(C)C(=O)[C@H](Cc1c[nH]c2ccccc12)NC(=O)CNC(=O)[C@H](Cc1ccc(O)cc1)NC(=O)[C@@H]1CCCN1C(=O)[C@@H](CCC(=O)O)NC(=O)CN1CCN(CC(=O)O)CCN(CC(=O)O)CCN(CC(=O)O)CC1 [^177Lu-DOTA-MGS8, metal not drawn] ({DOTA}-[dE]PYGW[NMeNle]D[1Nal]-NH2; C-terminus assumed)
- tumour uptake in A431-CCK2R xenografts [10]: 34.7±9.4 % IA/g

Molecule: CSCC[C@H](NC(=O)[C@H](Cc1c[nH]c2ccccc12)NC(=O)CNC(=O)[C@H](Cc1ccc(O)cc1)NC(=O)[C@H](C)NC(=O)[C@@H](CCC(=O)O)NC(=O)[C@@H](CCC(=O)O)NC(=O)[C@@H](CCC(=O)O)NC(=O)[C@@H](CCC(=O)O)NC(=O)[C@@H](CCC(=O)O)NC(=O)[C@@H](CCC(=O)O)NC(=O)CN1CCN(CC(=O)O)CCN(CC(=O)O)CCN(CC(=O)O)CC1)C(=O)N[C@@H](CC(=O)O)C(=O)N[C@@H](Cc1ccccc1)C(N)=O [^177Lu-PP-F11, metal not drawn]
- percentage of intact radioligand present in the blood [7]: 5.5%
- intact peptide in urine and blood [11]: no intact peptide could be found

Molecule: CCCC[C@H](NC(=O)[C@H](Cc1c[nH]c2ccccc12)NC(=O)CNC(=O)[C@H](Cc1ccc(O)cc1)NC(=O)[C@H](C)NC(=O)[C@@H](CCC(=O)O)NC(=O)[C@@H](CCC(=O)O)NC(=O)[C@@H](CCC(=O)O)NC(=O)[C@@H](CCC(=O)O)NC(=O)[C@@H](CCC(=O)O)NC(=O)[C@@H](CCC(=O)O)NC(=O)CN1CCN(CC(=O)O)CCN(CC(=O)O)CCN(CC(=O)O)CC1)C(=O)N[C@@H](CC(=O)O)C(=O)N[C@@H](Cc1ccccc1)C(N)=O [^177Lu-PP-F11N, DOTA-DGlu-DGlu-DGlu-DGlu-DGlu-DGlu-Ala-Tyr-Gly-Trp-Nle-Asp-Phe-NH2, metal not drawn]
- percentage of intact radioligand present in the blood [7]: 12.7%

Molecule: [1,4,7,10-tetraazacyclodocecan-1,4,7,10-tetraacetic acid^0,D-Glu^1,DesGlu^2-6]minigastrin [^111In-DOTA-MG11]
- biological half-life in vivo [12]: below five minutes
